These results are taken from patent publication US4157391A, “Cholesterol derivative-based medicaments acting on bio-protective mechanisms” (The Green Cross Corporation, priority 1977, dated 1979).

Structures are written as SMILES. Converted amounts (≈) assume the structure as drawn.

Data set [1] deals with edemata grown on the mice legs (carrageenin). Description: Antiphlogistic action: carrageenin edema of hind legs in mice. The format is in vivo. As to the method:
20 Mice were divided into four groups of five and the mice of two test groups were administered intra-abdominally with 7-hydroxycholesterol and 7-ketocholesterol, respectively, with the dose of 200 mg/kg (physiologically isotonic 2.0 weight % aqueous solution), and 1 hour later, 0.05 ml of 1% carrageenin was administered as a phlogogenic agent subcutaneously to the hind legs of these mice.
The sizes of the edemata grown on the mice legs with time after carrageenin administration were measured by a volume differential meter and compared with those of the control mice to which an isotonic sodium chloride solution was administered.
The test results are shown in the graph of FIG. 1 of the accompanying drawing. In the graph, percent of growth of edema is given on the vertical Y-axis and time (hour) after carrageenin administration is given on the horizontal X-axis. The numerals for the respective curves represent the respective specimens used in the test, that is, 1 represents isotonic sodium chloride solution, 2 cholesterol, 3 7-ketocholesterol, and 4 7-hydroxycholesterol.
In general terms: Carrageenan injected into the paw causes an acute inflammation.

For a further data set, the system named is PHA reaction. Description: PHA reaction 50% inhibition (PHA method by Cooperband et al.), immunoregulatory action in vitro. To be noted: read-out: PHA reaction 50% inhibition concentration. Format: cell-based. From the text: The PHA reaction 50% inhibition concentration of the compounds of the general formula (I) were examined by using the PHA method by Cooperband, S. R., et al., (The Journal of Immunology, 109, (1), 154, (1972)). For sake of comparison, the effect of IRA obtained according to the Occhino et al., method (The Journal of Immunology, 110, (3), 685, (1973)) was also shown.

The test system of the next data set is rats. As to the kind of experiment: Acute toxicity test in rats. Format: in vivo. Conditions: intra-abdominal, 500, 1,000, 1,500 and 2,000 mg/kg, 5-day observation. As to the method:
An acute toxicity test of 7-hydroxycholesterol and 7-ketocholesterol was conducted on one group of rats (5 rats) with average body weight of about 200 gr. Each compound was suspended in a physiological solution of sodium chloride and made into a uniform suspension by a supersonic treatment, and then such suspension was administered intro-abdominally to each rat at the doses of 500 mg/kg, 1,000 mg/kg, 1,500 mg/kg and 2,000 mg/kg, respectively.

For `CC(C)CCC[C@@H](C)[C@H]1CC[C@H]2[C@@H]3C(=O)C=C4C[C@@H](O)CC[C@]4(C)[C@H]3CC[C@]12C` [7-ketocholesterol], the growth of edema result in data set [1] (200 mg/kg intra-abdominally, time not separately stated, control 82% in four hours) is listed as “about 50%”. Further, the IC50 in the data set with PHA reaction came out at 8 mg/L (≈ 20 µM). For the same compound, in the data set with rats, the “death in acute toxicity test” value is “No death”.

As to `CC(C)CCC[C@@H](C)[C@H]1CC[C@H]2[C@@H]3C(O)C=C4C[C@@H](O)CC[C@]4(C)[C@H]3CC[C@]12C` (stereo partly shown) [7-hydroxycholesterol], in data set [1] (200 mg/kg intra-abdominally, five hours after carrageenin, control 82% in four hours), the growth of edema result is “about 40%”. For the same compound, the IC50 with PHA reaction was 5 mg/L (≈ 12.4 µM). For the same compound, in the data set on rats, the “death in acute toxicity test” value is listed as “No death”.

With `CC(C)CCC[C@@H](C)[C@H]1CC[C@H]2[C@@H]3CC=C4C[C@@H](O)CC[C@]4(C)[C@H]3CC[C@]12C` [cholesterol], in data set [1] (four hours after carrageenin, cholesterol group (reference data), control 82%), the growth of edema is given as 70%.
